Laboratory results taken from PubChem BioAssay AID1648 (Sanford-Burnham Center for Chemical Genomics, 2009).
The source made the active and inactive calls. The rule behind the calls is not given here.

Target: Serine/threonine-protein kinase mTOR (Homo sapiens) (UniProt P42345)
Test: binders of mTOR FRB domain, biophysical, NMR (AID 1648)
Details: NMR binding to FRB domain, chemical shift

Chain of Serine/threonine-protein kinase mTOR (Homo sapiens) (P42345 2015-2114): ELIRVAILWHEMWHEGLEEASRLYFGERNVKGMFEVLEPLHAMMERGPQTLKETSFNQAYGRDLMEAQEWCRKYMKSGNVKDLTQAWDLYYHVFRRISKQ

Row | SMILES | Kd
1 | CSc1nnc2ccc(-c3cccnc3)nn12 | > 4 mM (inactive)
2 | CC[C@@H]1[C@@H](O)N2C3C[C@H]1C1C(O)[C@]4(C[C@@H]12)c1ccccc1N(C)[C@@H]34 (stereo partly drawn) | > 4 mM (inactive)
3 | COc1cc(OC)c2c(c1)O[C@H](c1ccc(OC)c(OC)c1)[C@@H](O)C2 | > 4 mM (inactive)
4 | COc1cc2c3cc1Oc1cc(ccc1O)C[C@@H]1c4c(cc(OC)c(O)c4Oc4ccc(cc4)C[C@@H]3N(C)CC2)CC[N+]1(C)C | > 4 mM (inactive)
5 | C=CCNC(=O)c1nn2cccnc2c1Cl | > 4 mM (inactive)
6 | COc1ccc2c(c1OC)C(=O)OC2[C@H]1c2c(cc3c(c2OC)OCO3)CCN1C (stereo partly drawn) | > 4 mM (inactive)
7 | Cc1sc2nc3n(c(=O)c2c1C)CCCS3 | > 4 mM (inactive)
8 | COc1cccc(-c2nc(-c3ccccn3)no2)c1OC | > 4 mM (inactive)
9 | O=C(Nc1nnc(-c2ccncc2)o1)c1cccs1 | > 4 mM (inactive)
10 | C=C[C@@](C)(O)CCC1C(=C)CCC2[C@@](C)(CO)CCC[C@]12C (stereo partly drawn) | > 4 mM (inactive)
11 | CCOC(=O)c1cnc2cc(C)nn2c1C | > 4 mM (inactive)
12 | Cc1occc1C(=O)Nc1ccc2c(c1)CCC2 | > 4 mM (inactive)
13 | NC(=O)CSc1nnc2ccc(-c3ccccn3)nn12 | > 4 mM (inactive)
14 | OCCNC(=S)Nc1ccccc1 | > 4 mM (inactive)
15 | Cc1nnc(NCCCO)[nH]c1=O | > 4 mM (inactive)
16 | Cc1nn(C)c2sc(CO)cc12 | > 4 mM (inactive)
17 | S=C=NCc1ccccc1 | > 4 mM (inactive)
18 | CCOC(=O)c1csc(C)n1 | > 4 mM (inactive)
19 | COC(=O)N1CCN(c2ccc(C(C)=O)cc2)CC1 | > 4 mM (inactive)
20 | O=CN1CCN(C2CC(=O)N(c3ccccc3)C2=O)CC1 (stereo not drawn) | > 4 mM (inactive)
21 | O=S(=O)(O)c1nc2ccccc2[nH]1 | > 4 mM (inactive)
22 | O=C(NCc1ccco1)c1ccc(=O)[nH]c1 | > 4 mM (inactive)
23 | COc1ccc(C(C)=O)c(O)c1 | > 4 mM (inactive)

Row | SMILES | Kd
24 | O=C1NC(=O)C(C2SC(=O)NC2=O)S1 (stereo not drawn) | > 4 mM (inactive)
25 | CCOC(=O)CNC(=O)CSc1nnc(C)c(=O)[nH]1 | > 4 mM (inactive)
26 | C=C1CCC2C(CC2(C)C)C(=C)CC/C1=N/O (stereo not drawn) | > 4 mM (inactive)
27 | Cc1ccc(/C=C/C(=O)O)cc1S(=O)(=O)NCCO | > 4 mM (inactive)
28 | COC(=O)c1cnccc1C(F)(F)F | > 4 mM (inactive)
29 | COc1ccc2c(c1)C(NC(C)=O)C(=O)N2C (stereo not drawn) | > 4 mM (inactive)
30 | O=C(O)C1C(=O)NCC1c1ccccc1 (stereo not drawn) | > 4 mM (inactive)
31 | O=C(Nc1ccc2c(c1)OCCO2)c1ccncc1 | > 4 mM (inactive)
32 | O=C(Nc1ccccc1[N+](=O)[O-])c1ccc(=O)[nH]n1 | > 4 mM (inactive)
33 | CCOC(=O)c1c(C)nc2ncccn12 | > 4 mM (inactive)
34 | OCc1ccc2c(c1)OCO2 | > 4 mM (inactive)
35 | NC(=O)c1ccc(SCC(=O)O)c([N+](=O)[O-])c1 | > 4 mM (inactive)
36 | CCn1c(C)c(C(C)=O)c(N2CCOCC2)nc1=S | > 4 mM (inactive)
37 | O=C(Nc1ccon1)c1cc2c(s1)CCCC2 | > 4 mM (inactive)
38 | Clc1ccc(SCCn2cncn2)cc1 | > 4 mM (inactive)
39 | CSc1ccccc1NC(=O)c1ccco1 | > 4 mM (inactive)
40 | O=C(NC1=NCCS1)c1ccc2snnc2c1 | > 4 mM (inactive)
41 | COc1cccc(Oc2ccc(N)cn2)c1 | > 4 mM (inactive)
42 | CC1CCC2(OC1)OC1CC3C4CCC5C[C@@H](O)CCC5(C)C4=CCC3(C)C1[C@@H]2C (stereo partly drawn) | > 4 mM (inactive)
43 | CN1CCC(N(C)C2CCN(C)CC2)CC1 | > 4 mM (inactive)
44 | O=C(C1CCC(C(=O)N2CCCC2)CC1)N1CCCC1 (stereo not drawn) | > 4 mM (inactive)
45 | Nc1ccccc1-n1cccn1 | > 4 mM (inactive)
46 | Nc1ccc(-n2cncn2)cc1 | > 4 mM (inactive)

Row | SMILES | Kd
47 | O=C(Nn1c(=S)[nH]c2ccccc2c1=O)c1ccncc1 | > 4 mM (inactive)
48 | COc1cc(OC)c2c(=O)c(-c3ccccc3)coc2c1 | > 4 mM (inactive)
49 | CC(=O)Nc1ccc(-c2ccc3nncn3n2)cc1 | > 4 mM (inactive)
50 | COc1cc(O)c(C(=O)c2ccccc2)cc1O | > 4 mM (inactive)
51 | NCc1ccc2c(c1)CCO2 | > 4 mM (inactive)
52 | N/C(=N/S(=O)(=O)c1cccs1)c1ccccc1 | > 4 mM (inactive)
53 | C=C1[C@H]2CC[C@@]3(C)[C@H](c4ccoc4)OC(=O)C[C@]13O[C@H]1C[C@H](O)C(C)(C)[C@H](CC(=O)OC)[C@]12C | > 4 mM (inactive)
54 | O=C(CNC(=O)c1cccs1)NC1=NCCS1 | > 4 mM (inactive)
55 | CCCCn1c(=O)cc(O)c2ccccc21 | > 4 mM (inactive)
56 | CN1CCC(=NNC(=O)c2ccco2)CC1 | > 4 mM (inactive)
57 | O=C(c1ccncc1)N1CCN(C(=O)c2ccco2)CC1 | > 4 mM (inactive)
58 | O=C1CCC(C(=O)NCc2cccnc2)N1 (stereo not drawn) | > 4 mM (inactive)
59 | NC(=O)C1CCN(CC2CC=CCC2)CC1 (stereo not drawn) | > 4 mM (inactive)
60 | CN1CC(=O)N=C1N | > 4 mM (inactive)
61 | NC(=O)c1cc2c(n(-c3ccccc3)c1=O)CCCC2=O | > 4 mM (inactive)
62 | Cn1c(CO)nc2cc(N)ccc21 | > 4 mM (inactive)
63 | CC(=O)O[C@H]1CC[C@]2(C)C3CC[C@@]4(C)C(CC5O[C@@]6(CCC(C)CO6)[C@@H](C)C54)C3CC[C@@H]2C1 (stereo partly drawn) | > 4 mM (inactive)
64 | C/C=C(\C)C(=O)OC1[C@@H]2C=C3C(CC[C@]4(C)C3CC(=O)O[C@H]4c3ccoc3)C(C)(C2=O)[C@@H](C(O)C(=O)OC)C1(C)C (stereo partly drawn) | > 4 mM (inactive)
65 | O=C(O)CSc1nc2ccccc2c(=O)[nH]1 | > 4 mM (inactive)
66 | Cc1nc2cc(NC(=O)Nc3nccs3)ccc2n1C | > 4 mM (inactive)
67 | Cn1c(=O)c2c(ncn2CCN)n(C)c1=O | > 4 mM (inactive)
68 | Cc1sc2nc(NCCO)[nH]c(=O)c2c1C | > 4 mM (inactive)
69 | Cc1cccn2cc(CNc3ccccc3)nc12 | > 4 mM (inactive)

Row | SMILES | Kd
70 | C[C@H]1OC(O[C@H]2[C@@H](O)CC(O[C@H]3[C@@H](O)C[C@H](O[C@H]4CC[C@]5(C)C6CC[C@]7(C)[C@@H](C8=CC(=O)OC8)[C@@H](O)C[C@]7(O)[C@@H]6CC[C@@H]5C4)O[C@@H]3C)O[C@@H]2C)C[C@H](O)C1O (stereo partly drawn) | > 4 mM (inactive)
71 | COc1cccc(-c2cc(=O)c3cc(OC)ccc3o2)c1 | > 4 mM (inactive)
72 | O=C(O)C1=CCCNC1 | > 4 mM (inactive)
73 | Nc1cccc2c(=O)[nH][nH]c(=O)c12 | > 4 mM (inactive)
74 | CN(C)Cc1nc2c([nH]1)c(=O)[nH]c(=O)n2C | > 4 mM (inactive)
75 | O=c1[nH]nc(Cc2ccncc2)c2ccccc12 | > 4 mM (inactive)
76 | CCSc1nc(=S)n(CC)c(C)c1C(C)=O | > 4 mM (inactive)
77 | c1ccc2[nH]c(SCc3cscn3)nc2c1 | > 4 mM (inactive)
78 | NN1C(=O)/C(=C/c2ccc(O)c(O)c2)SC1=S | > 4 mM (inactive)
79 | COCc1nc(-c2cc(Br)ccc2OC)no1 | > 4 mM (inactive)
80 | CC1(C)O[C@H]2[C@H](O)C[C@](O)(C(N)=O)C[C@H]2O1 | > 4 mM (inactive)
81 | CC(=O)Nc1ccncc1NC(C)=O | > 4 mM (inactive)
82 | Cc1cc(C)n(CCCC(=O)O)n1 | > 4 mM (inactive)
83 | CCc1ccc2oc(-c3cc(N)cc(C)c3O)nc2c1 | > 4 mM (inactive)
84 | O=C(NCC1CCCCC1)c1ccco1 | > 4 mM (inactive)
85 | CCCCCC/C=C\CCCCCCCc1cccc(O)c1C(=O)O | > 4 mM (inactive)
86 | O=[n+]1c2c(n([O-])c3ccccc31)CCCC2 | > 4 mM (inactive)
87 | C=CCCCCCCCCCCCC(O)CC(O)COC(C)=O (stereo not drawn) (tested in a mixture with another compound) | > 4 mM (inactive)
88 | Cc1ccccc1N1C(=O)CC(=O)NC1=O | > 4 mM (inactive)
89 | CN1CN(Cc2ccccc2)CN/C1=N/[N+](=O)[O-] | > 4 mM (inactive)
90 | CCOC(=O)c1c(C)nc2cc(C)ccn12 | > 4 mM (inactive)
91 | CC(=O)c1c(C)n([O-])c2ccccc2[n+]1=O | > 4 mM (inactive)
92 | OCc1ccc(-n2cncn2)cc1 | > 4 mM (inactive)

Row | SMILES | Kd
93 | Cn1c(=O)n(CC(=O)N2CCOCC2)c2ccccc21 | > 4 mM (inactive)
94 | O=C(O)CNS(=O)(=O)c1cccs1 | > 4 mM (inactive)
95 | COc1ccc([C@H]2COc3c(ccc(O)c3OC)C2)c(OC)c1O | > 4 mM (inactive)
96 | COC1=CC23CCCN2CCc2cc4c(cc2C3C1O)OCO4 (stereo not drawn) | > 4 mM (inactive)
97 | NCc1ccc(-c2cccs2)s1 | > 4 mM (inactive)
98 | COc1ccccc1/C=C\C(=O)O | > 4 mM (inactive)
99 | Cc1ccccc1-n1c(-c2cccnc2)n[nH]c1=S | > 4 mM (inactive)
100 | Nc1cc(=O)[nH]c(SCC(=O)NC2CCCCC2)n1 | > 4 mM (inactive)
101 | COc1ccc2c(c1)[n+](=O)c(C(C)=O)c(C)n2[O-] | > 4 mM (inactive)
102 | CCN1C[C@@]2(COC)C3[C@@H](OC)[C@H]4[C@@H]1[C@]3(C(OC)C[C@H]2O)C1C[C@@]2(O)[C@H](OC(=O)c3ccccc3)C1[C@]4(OC(C)=O)[C@@H](O)[C@@H]2OC (stereo partly drawn) | > 4 mM (inactive)
103 | C[C@@H]1CC[C@@]23CCC4(C)[C@@](C=CC5[C@@]6(C)CCC(=O)C(C)(C)C6CC[C@]54C)(OC2=O)C3[C@H]1C (stereo partly drawn) | > 4 mM (inactive)
104 | Cc1nnc(SCC(=O)N2CCCCC2)s1 | > 4 mM (inactive)
105 | O=C(O)Cc1nc(-c2ccncc2)n[nH]1 | > 4 mM (inactive)
106 | C/C=C(\C)C(=O)O[C@@H]1c2c(ccc3ccc(=O)oc23)OC(C)(C)[C@@H]1OC(C)=O | > 4 mM (inactive)
107 | CC1(C)NC(=O)N(CN2CCOCC2)C1=O | > 4 mM (inactive)
108 | O=C(O)c1cnc2n(c1=O)CCS2 | > 4 mM (inactive)
109 | NC(=O)CSc1ncnc2ccccc12 | > 4 mM (inactive)
110 | CC(=O)N1CCN(C2CCSC2)CC1 (stereo not drawn) | > 4 mM (inactive)
111 | COC(=O)N(c1ccccc1)P1(=S)OCCO1 | > 4 mM (inactive)
112 | CCN1CCC(NC2CCCCNC2=O)CC1 (stereo not drawn) | > 4 mM (inactive)
113 | CC1=C/C(=C\c2c(O)[nH]c(=O)[nH]c2=O)C(C)=N1 | > 4 mM (inactive)
